Laboratory results reported in PMC10359466, “Identification of a small-molecule inhibitor that selectively blocks DNA-binding by Trypanosoma brucei replication protein A1” (Nature Communications, 2023).
“Also recorded” adds a separate entry of the source.

Legend:
[1] = test system: human non-small cell lung cancer H460 cells; conditions: read-out: IC50, inhibition of proliferation; cited from earlier work
T. brucei cells = assay: AlamarBlue cell viability / growth inhibition of T. brucei; conditions: 10 to 60 μM, even at 60 µM, 72 h
Method: Synergy H1 microplate reader (BioTek) was used with 560/590 nm (excitation/emission) filter settings and relative fluorescence unit (RFU) values were obtained. The percentage of viable cells were calculated from the RFU values.
Trypanosome cells were seeded at 1 × 10^3 cells/ml density in 180 µl in a 96-well culture plate in triplicate. […] DMSO was used as a vehicle control at 0.0075%.

For `CCOc1ccc2cc(C3CC(c4ccc(Br)cc4)=NN3C(=O)CCC(=O)O)c(Cl)nc2c1` (centres unmarked) [TDRL-505, reference compound], the IC50 [1] is given as 30.8 µM and the “Effect on T. brucei proliferation” value (T. brucei cells) is given as “did not observe any effect; also recorded: did not show any toxicity”.
